Data: patent US7495027B2, “3-aryl-4-hydroxyfuranone compounds and the human and animal health use thereof” (Wyeth, priority 2003, dated 2009)

Experiments:
[1] = system: Trichostrongylus columbriformis; assay: In vivo efficacy against T. colubriformis in infected gerbils; conditions: gerbils infected with T. colubriformis; single oral dose of 50 mg/kg by gavage; worm counts four days post-treatment; % mortality as compared to negative control
Protocol: In Vivo Evaluation of the Efficacy of Test Compounds Against T. colubriformis
In this evaluation, gerbils are infected with Trichostrongylus columbriformis infective larvae at a concentration of approximately 800 L3/mL. Larvae for gerbil infections are cultured from feces from sheep previously infected with T. colubriformis. One week post infection, test compounds are administered by gavage as a single oral dose of 50 mg/kg of body weight. For each group of 3 gerbils, 10 mg of test compound are dissolved in 2 mL of PEG 400:DMSO (1:2 v/v) and each animal is administered the test solution at a rate of 0.1 mL/10 g of body weight. […] All animals are observed daily for morbidity and mortality. Four days post-treatment, all animals are weighed and necropsied. Worm counts are conducted with the use of stereoscopes and counters.

[2] = system: larvae of blowfly, Lucilia sericata; assay: whole plant or invertebrate; conditions: dose rate of 20 ppm, Lucilia sericata larvae on treated filter paper with bovine serum; for % Mortality 24 h: assessed at 24 h; for % Mortality 48 h: assessed at 48 h
Protocol: Comparative Evaluation of the Efficacy of a 3-Aryl-4-hydroxyfuranone Compound Against Blowfly Larvae
In this evaluation, filter paper discs are treated with an acetone solution of test compound and allowed to dry. Bovine serum and newly emerged larvae of blowfly, Lucilia sericata, are added to the treated filter paper. Mortality is assessed at 24 h and 48 h. When more than one evaluation is performed, the data are averaged.

**Q.** `Cc1cc(/C=C2\OC(=O)C(c3cccc(Cl)c3)=C2O)ccc1-c1ccccc1C(F)(F)F` was tested. Which Mortality [1] did it give?
**A.** 11.20%

**Q.** Which Mortality [1] does the source give for `COc1ccccc1-c1ccc(C=C2OC(=O)C(c3cccc(Cl)c3)=C2O)cc1C` here?
**A.** 0.00%

**Q.** For `COc1cc(/C=C2\OC(=O)C(c3cccc(Cl)c3)=C2O)ccc1-c1ccccc1Cl`, which Mortality [1] is on record?
**A.** 0.00%

**Q.** With `COC1=C(c2ccc(Cl)cc2)C(=O)OC1=Cc1ccc(C#N)cc1` (mixture of isomers) [R=CH3, R1=4-Cl—C6H4**, R2=4-CN—C6H4] as the compound, how does the “% Mortality 24 h” value [2] read?
**A.** 0%

**Q.** And the “% Mortality 48 h” value [2]?
**A.** 0%

**Q.** `O=C1OC(=Cc2ccc(C(F)(F)F)cc2)C(O)=C1c1cccc(C(F)(F)F)c1` (mixture of isomers) [R=H, R1=3-CF3—C6H4**, R2=4-CF3—C6H4] was tested. Which “% Mortality 24 h” value [2] did it give?
**A.** 100%

**Q.** And the “% Mortality 48 h” value [2]?
**A.** 100%

**Q.** How did the “% Mortality 24 h” value [2] turn out when `N#Cc1ccc(C=C2OC(=O)C(c3cccc(C(F)(F)F)c3)=C2O)cc1` (mixture of isomers) [R=H, R1=3-CF3—C6H4**, R2=4-CN—C6H4] was run?
**A.** 20%

**Q.** What about the “% Mortality 48 h” value [2] of the same compound?
**A.** 20%

**Q.** `O=C1OC(=Cc2ccc(F)cc2)C(O)=C1c1cccc(C(F)(F)F)c1` (mixture of isomers) [R=H, R1=3-CF3—C6H4**, R2=4-F—C6H4] was tested. Which “% Mortality 24 h” value [2] did it give?
**A.** 100%

**Q.** And the “% Mortality 48 h” value [2]?
**A.** 100%

**Q.** What does the source list for `N#Cc1cccc(C2=C(O)C(=Cc3ccc(C(F)(F)F)cc3)OC2=O)c1` (mixture of isomers) [R=H, R1=3-CN—C6H4**, R2=4-CF3—C6H4]?
**A.** % Mortality 24 h [2]: 0%; % Mortality 48 h [2]: 0%

**Q.** Which “% Mortality 24 h” value [2] does the source give for `N#Cc1ccc(C=C2OC(=O)C(c3cccc(C#N)c3)=C2O)cc1` (mixture of isomers) [R=H, R1=3-CN—C6H4**, R2=4-CN—C6H4] here?
**A.** 0%

**Q.** What about the “% Mortality 48 h” value [2] of the same compound?
**A.** 0%

**Q.** For `N#Cc1cccc(C2=C(O)C(=Cc3ccc(Cl)cc3)OC2=O)c1` (mixture of isomers) [R=H, R1=3-CN—C6H4**, R2=4-Cl—C6H4], which “% Mortality 24 h” value [2] is on record?
**A.** 0%

**Q.** What about the “% Mortality 48 h” value [2] of the same compound?
**A.** 0%

**Q.** Which “% Mortality 24 h” value [2] does the source give for `N#Cc1cccc(C2=C(O)C(=Cc3ccc(F)cc3)OC2=O)c1` (mixture of isomers) [R=H, R1=3-CN—C6H4**, R2=4-F—C6H4] here?
**A.** 0%

**Q.** What about the “% Mortality 48 h” value [2] of the same compound?
**A.** 0%

**Q.** What does the source list for `O=C1OC(=Cc2ccc(C(F)(F)F)cc2)C(O)=C1c1cccc(Cl)c1` (mixture of isomers) [R=H, R1=3-Cl—C6H4**, R2=4-CF3—C6H4]?
**A.** % Mortality 24 h [2]: 60%; % Mortality 48 h [2]: 75%

**Q.** What does the source list for `N#Cc1ccc(C=C2OC(=O)C(c3cccc(Cl)c3)=C2O)cc1` (mixture of isomers) [R=H, R1=3-Cl—C6H4**, R2=4-CN—C6H4]?
**A.** % Mortality 24 h [2]: 0%; % Mortality 48 h [2]: 0%

**Q.** For `O=C1OC(=Cc2ccc(Cl)cc2)C(O)=C1c1cccc(Cl)c1` (mixture of isomers) [R=H, R1=3-Cl—C6H4**, R2=4-Cl—C6H4], which “% Mortality 24 h” value [2] is on record?
**A.** 0%

**Q.** What about the “% Mortality 48 h” value [2] of the same compound?
**A.** 0%

**Q.** Which results are given for `O=C1OC(=Cc2ccc(F)cc2)C(O)=C1c1cccc(Cl)c1` (mixture of isomers) [R=H, R1=3-Cl—C6H4**, R2=4-F—C6H4]?
**A.** % Mortality 24 h [2]: 0%; % Mortality 48 h [2]: 0%

**Q.** With `O=C1OC(=Cc2ccc(C(F)(F)F)cc2)C(O)=C1c1ccc(C(F)(F)F)cc1` (mixture of isomers) [R=H, R1=4-CF3—C6H4**, R2=4-CF3—C6H4] as the compound, how does the “% Mortality 24 h” value [2] read?
**A.** 100%

**Q.** And the “% Mortality 48 h” value [2]?
**A.** 100%

**Q.** How did the “% Mortality 24 h” value [2] turn out when `N#Cc1ccc(C=C2OC(=O)C(c3ccc(C(F)(F)F)cc3)=C2O)cc1` (mixture of isomers) [R=H, R1=4-CF3—C6H4**, R2=4-CN—C6H4] was run?
**A.** 100%

**Q.** And the “% Mortality 48 h” value [2]?
**A.** 100%

**Q.** `O=C1OC(=Cc2ccc(Cl)cc2)C(O)=C1c1ccc(C(F)(F)F)cc1` (mixture of isomers) [R=H, R1=4-CF3—C6H4**, R2=4-Cl—C6H4] was tested. Which “% Mortality 24 h” value [2] did it give?
**A.** 100%

**Q.** And the “% Mortality 48 h” value [2]?
**A.** 100%

**Q.** `O=C1OC(=Cc2ccc(F)cc2)C(O)=C1c1ccc(C(F)(F)F)cc1` (mixture of isomers) [R=H, R1=4-CF3—C6H4**, R2=4-F—C6H4] was tested. Which “% Mortality 24 h” value [2] did it give?
**A.** 100%

**Q.** What about the “% Mortality 48 h” value [2] of the same compound?
**A.** 100%

**Q.** What does the source list for `N#Cc1ccc(C2=C(O)C(=Cc3cccc(C(F)(F)F)c3)OC2=O)cc1` (mixture of isomers) [R=H, R1=4-CN—C6H4**, R2=3-CF3—C6H4]?
**A.** % Mortality 24 h [2]: 0%; % Mortality 48 h [2]: 90%

**Q.** What does the source list for `N#Cc1ccc(C2=C(O)C(=Cc3ccc(C(F)(F)F)cc3)OC2=O)cc1` (mixture of isomers) [R=H, R1=4-CN—C6H4**, R2=4-CF3—C6H4]?
**A.** % Mortality 24 h [2]: 100%; % Mortality 48 h [2]: 100%

**Q.** What does the source list for `N#Cc1ccc(C=C2OC(=O)C(c3ccc(C#N)cc3)=C2O)cc1` (mixture of isomers) [R=H, R1=4-CN—C6H4**, R2=4-CN—C6H4]?
**A.** % Mortality 24 h [2]: 40%; % Mortality 48 h [2]: 100%

**Q.** How did the “% Mortality 24 h” value [2] turn out when `N#Cc1ccc(C2=C(O)C(=Cc3ccc(Cl)cc3)OC2=O)cc1` (mixture of isomers) [R=H, R1=4-CN—C6H4**, R2=4-Cl—C6H4] was run?
**A.** 25%

**Q.** And the “% Mortality 48 h” value [2]?
**A.** 100%

**Q.** How did the “% Mortality 24 h” value [2] turn out when `N#Cc1ccc(C2=C(O)C(=Cc3ccc(F)cc3)OC2=O)cc1` (mixture of isomers) [R=H, R1=4-CN—C6H4**, R2=4-F—C6H4] was run?
**A.** 0%

**Q.** What about the “% Mortality 48 h” value [2] of the same compound?
**A.** 0%

**Q.** What does the source list for `O=C1OC(=Cc2ccccc2C(F)(F)F)C(O)=C1c1ccc(Cl)cc1` (mixture of isomers) [R=H, R1=4-Cl—C6H4**, R2=2-CF3—C6H4]?
**A.** % Mortality 24 h [2]: 10%; % Mortality 48 h [2]: 10%

**Q.** `O=C1OC(=Cc2cccc(Cl)c2)C(O)=C1c1ccc(Cl)cc1` (mixture of isomers) [R=H, R1=4-Cl—C6H4**, R2=3-Cl—C6H4] was tested. Which “% Mortality 24 h” value [2] did it give?
**A.** 0%

**Q.** What about the “% Mortality 48 h” value [2] of the same compound?
**A.** 0%

**Q.** Which “% Mortality 24 h” value [2] does the source give for `O=C1OC(=Cc2ccc(C(F)(F)F)cc2)C(O)=C1c1ccc(Cl)cc1` (mixture of isomers) [R=H, R1=4-Cl—C6H4**, R2=4-CF3—C6H4] here?
**A.** 100%

**Q.** What about the “% Mortality 48 h” value [2] of the same compound?
**A.** 100%

**Q.** Which results are given for `N#Cc1ccc(C=C2OC(=O)C(c3ccc(Cl)cc3)=C2O)cc1` (mixture of isomers) [R=H, R1=4-Cl—C6H4**, R2=4-CN—C6H4]?
**A.** % Mortality 24 h [2]: 0%; % Mortality 48 h [2]: 90%

**Q.** How did the “% Mortality 24 h” value [2] turn out when `O=C1OC(=Cc2ccc(F)cc2)C(O)=C1c1ccc(Cl)cc1` (mixture of isomers) [R=H, R1=4-Cl—C6H4**, R2=4-F—C6H4] was run?
**A.** 0%

**Q.** What about the “% Mortality 48 h” value [2] of the same compound?
**A.** 0%

**Q.** What does the source list for `O=C1OC(=Cc2ccc(C(F)(F)F)cc2)C(O)=C1c1ccc(F)cc1` (mixture of isomers) [R=H, R1=4-F—C6H4**, R2=4-CF3—C6H4]?
**A.** % Mortality 24 h [2]: 0%; % Mortality 48 h [2]: 0%

**Q.** How did the “% Mortality 24 h” value [2] turn out when `N#Cc1ccc(C=C2OC(=O)C(c3ccc(F)cc3)=C2O)cc1` (mixture of isomers) [R=H, R1=4-F—C6H4**, R2=4-CN—C6H4] was run?
**A.** 0%

**Q.** What about the “% Mortality 48 h” value [2] of the same compound?
**A.** 0%

**Q.** `O=C1OC(=Cc2ccc(Cl)cc2)C(O)=C1c1ccc(F)cc1` (mixture of isomers) [R=H, R1=4-F—C6H4**, R2=4-Cl—C6H4] was tested. Which “% Mortality 24 h” value [2] did it give?
**A.** 0%

**Q.** What about the “% Mortality 48 h” value [2] of the same compound?
**A.** 0%

**Q.** Which results are given for `O=C1OC(=Cc2ccc(F)cc2)C(O)=C1c1ccc(F)cc1` (mixture of isomers) [R=H, R1=4-F—C6H4**, R2=4-F—C6H4]?
**A.** % Mortality 24 h [2]: 0%; % Mortality 48 h [2]: 0%

**Q.** How did the “% Mortality 24 h” value [2] turn out when `COC1=C(c2cccc(C(F)(F)F)c2)C(=O)O/C1=C\c1ccccc1` [R=CH3, R1=3-CF3—C6H4, R2=C6H5] was run?
**A.** 0%

**Q.** What about the “% Mortality 48 h” value [2] of the same compound?
**A.** 0%

**Q.** What does the source list for `O=C1O/C(=C\c2ccc(-c3ccccc3)c(F)c2)C(O)=C1c1cccc(C(F)(F)F)c1` [R=H, R1=3-CF3—C6H4, R2=4-(3-F-biphenyl)]?
**A.** % Mortality 24 h [2]: 0%; % Mortality 48 h [2]: 0%

**Q.** Which results are given for `O=C1O/C(=C\c2cccc3ccccc23)C(O)=C1c1cccc(CO)c1` [R=H, R1=3-CH2OH—C6H4, R2=1-naphthyl]?
**A.** % Mortality 24 h [2]: 0%; % Mortality 48 h [2]: 0%

**Q.** Which “% Mortality 24 h” value [2] does the source give for `N#Cc1ccc(-c2ccc(/C=C3\OC(=O)C(c4ccc(Cl)cc4)=C3O)cc2)cc1` [R=H, R1=4-Cl—C6H4*, R2=4-(4′-CN-biphenyl)] here?
**A.** 0%

**Q.** What about the “% Mortality 48 h” value [2] of the same compound?
**A.** 100%

**Q.** How did the “% Mortality 24 h” value [2] turn out when `N#Cc1ccc(-c2ccc(/C=C3\OC(=O)C(c4ccc(Cl)cc4)=C3O)cc2)cc1` [R=H, R1=4-Cl—C6H4, R2=4-(4′-CN-biphenyl)] was run?
**A.** 0%

**Q.** And the “% Mortality 48 h” value [2]?
**A.** 0%

**Q.** For `COc1ccc(C=C2OC(=O)C(c3ccc(Cl)cc3)=C2O)cc1` [R=H, R1=4-Cl—C6H4, R2=4-OMe—C6H4], which “% Mortality 24 h” value [2] is on record?
**A.** 0%

**Q.** And the “% Mortality 48 h” value [2]?
**A.** 0%

**Q.** `O=C1O/C(=C\c2cccc(C(F)(F)F)c2)C(O)=C1c1ccccc1` [R=H, R1=C6H5, R2=3-CF3—C6H4] was tested. Which “% Mortality 24 h” value [2] did it give?
**A.** 0%

**Q.** And the “% Mortality 48 h” value [2]?
**A.** 0%
